Legend:
Bcl-2 family genes = assay: RNAseq gene expression changes in peripheral blood of Compound 1-treated CLL patients; format: in vivo, human
Procedure: RNAseq technology was used to measure gene expression changes in peripheral blood in patients treated with Compound 1. The patients were treated as part of a clinical trial (identifier NCT01476657) which is a phase 1 study in patients with advanced hematologic malignancies. Briefly, RNA was extracted from 200 ul of blood using TRI reagent, followed by RNA purification using a Zymo-Spin column. Timepoints were taken at baseline and cycle 1 day 8 (C1D8), which is 7 days of Compound 1 treatment. Expression was quantified using both FPKM and VOOM methods. Filters were used to prioritize genes identified during this analysis.

SU-DHL-4 control clones = assay: CTG (CellTiter-Glo) assay, control (DMSO-treated) clones; format: cell-based; details: Homo sapiens, read-out: AVG Cpnd 1 IC50
Procedure: (§1) Experiments were performed to examine the pathway and gene expression alterations in a cell line resistant to PI3K inhibitors. SU-DHL-4 is a DLBCL cell line. […] Five clones from each group were expanded. Cells were harvested for various assays, including CellTiter-Glo® assays, PD, RNA analysis, DNA analysis, and short tandem repeat (STR) fingerprinting.
(§2) Five clones from each group were expanded. Cells were harvested for various assays, including CTG (CellTiter-Glo, Promega, an assay that measures ATP levels as a surrogate for cell number in order to observe cell viability and changes in proliferation rate), PD (pharmacodynamic), RNA analysis, DNA analysis, and short tandem repeat (STR) fingerprinting. […] See, e.g., FIG. 16.

[1] = system: SU-DHL-4 IBR resistant clones; assay: CTG (CellTiter-Glo) assay, ibrutinib resistant clones; format: cell-based; details: Homo sapiens, read-out: AVG Cpnd 1 IC50
Procedure: as §1

CLL = assay: Compound 1 monotherapy in a patient with CLL (clinical trial); format: in vivo, human; details: 25 mg bid monotherapy
Procedure: A patient diagnosed with CLL was treated by a monotherapy of Compound 1 (25 mg bid) in a clinical trial. Serum samples of the patient were collected at various points in the treatment. The copy number of STK11 in the serum samples was determined by CytoScan (Affymetrix).

[2] = system: SU-DHL-4 Compound 1 resistant clones; assay: CTG (CellTiter-Glo) assay, Compound 1 resistant clones; format: cell-based; details: Homo sapiens, Cpnd 1 resistant clones
Procedure: as §1, §2

GRANTA-519 = assay: Combination study Compound 1 + Bcl-2 inhibitor, ATPLite 72 h, mantle cell lymphoma cell line; format: cell-based; details: combination with Compound 1
Text: (§3) The method is described as follows. […] These cell lines include GRANTA-519, Jeko-1 and Mino.

Jeko-1 = assay: as above; format: cell-based; details: combination with Compound 1
Text: as §3

U-2932 = assay: Combination study Compound 1 + Bcl-2 inhibitor, ATPLite 72 h, DLBCL ABC cell line; format: cell-based; details: combination with Compound 1
Text: (§4) The method is described as follows.

OCI-Ly3 = assay: as above; format: cell-based; details: combination with Compound 1
Text: as §4

TMD8 = assay: as above; format: cell-based; details: combination with Compound 1
Text: as §4

HBL-1 = assay: as above; format: cell-based; details: combination with Compound 1
Text: as §4

KARPAS-422 = assay: Combination study Compound 1 + Bcl-2 inhibitor, ATPLite 72 h, follicular lymphoma cell line; format: cell-based; details: combination with Compound 1
Text: as §4

RL = assay: as above; format: cell-based; details: combination with Compound 1
Text: as §4

DOHH-2 = assay: Combination study Compound 1 + Bcl-2 inhibitor, ATPLite 72 h, DLBCL GCB cell line; format: cell-based; details: combination with Compound 1
Text: (§5) The method is described as follows. […] Additive effect is CI=1.0. […] Antagonistic effect is CI>1.0.

SU-DHL-4-epst = assay: as above; format: cell-based; details: combination with Compound 1
Text: as §5

OPM-2 = assay: Combination study Compound 1 + Bcl-2 inhibitor, ATPLite 72 h, multiple myeloma cell line; format: cell-based; details: combination with Compound 1
Text: (§6) The method is described as follows. […] Additive effect is CI=1.0. […] Antagonistic effect is CI>1.0. […] These cell lines include NCI-H929, OMP-2, and RPMI-8226.

RPMI-8226 = assay: as above; format: cell-based; details: combination with Compound 1
Text: as §6

NCI-H929 = assay: as above; format: cell-based; details: combination with Compound 1
Text: as §6

Mino = assay: Combination study Compound 1 + Bcl-2 inhibitor, ATPLite 72 h, mantle cell lymphoma cell line; format: cell-based; details: combination with Compound 1
Text: The method is described as follows. […] Additive effect is CI=1.0. […] Antagonistic effect is CI>1.0. […] These cell lines include GRANTA-519, Jeko-1 and Mino.

WSU-NHL = assay: Combination study Compound 1 + Bcl-2 inhibitor, ATPLite 72 h, follicular lymphoma cell line; format: cell-based; details: combination with Compound 1
Text: as §5

KARPAS-299 = assay: Combination study Compound 1 + Bcl-2 inhibitor, ATPLite 72 h, T-cell lymphoma cell line; format: cell-based; details: combination with Compound 1
Text: (§7) The method is described as follows. […] The cell line includes HH and Karpas-299.

HH = assay: as above; format: cell-based; details: combination with Compound 1
Text: as §7

SU-DHL-10-epst = assay: Combination study Compound 1 + Bcl-2 inhibitor, ATPLite 72 h, DLBCL GCB cell line; format: cell-based; details: combination with Compound 1
Text: as §4

Farage = assay: as above; format: cell-based; details: combination with Compound 1
Text: as §4

OCI-Ly7 = assay: as above; format: cell-based; details: combination with Compound 1
Text: as §4

[3] = peripheral blood, Compound 1-treated patients, baseline vs C1D8

In the case of `C[C@H](Nc1ncnc2[nH]cnc12)c1cc2cccc(Cl)c2c(=O)n1-c1ccccc1` [Compound 1, (S)-3-(1-((9H-purin-6-yl)amino)ethyl)-8-chloro-2-phenylisoquinolin-1(2H)-one], the “HRK expression level increase” value (Bcl-2 family genes; many of the patients having stable disease or partial remission, after 7 days of Compound 1 treatment, FIG. 7) is reported as “at least 1.5 fold”, the “BBC3 (also called PUMA) gene expression change” value (Bcl-2 family genes; [3]) is reported as “up-regulated” and the “BIK gene expression change” value (Bcl-2 family genes; [3]) is reported as “downregulated”. For the same compound, the “BMF gene expression change” value (Bcl-2 family genes; [3]) was “up-regulated”, the “Bcl2L11 (also called BIM) gene expression change” value (Bcl-2 family genes; [3]) was “up-regulated” and the “Bcl2 gene expression change” value (Bcl-2 family genes; [3]) was “up-regulated”. The “HRK gene expression change” value (Bcl-2 family genes; [3]) was “up-regulated”, the “PMAIP1 (also called NOXA) gene expression change” value (Bcl-2 family genes; [3]) was “up-regulated” and the IC50 (SU-DHL-4 control clones) was 241 ± 17 nM. For the same compound, the IC50 [1] was 805 ± 339 nM, the patient response (CLL; after C7 (cycle 7)) was “progressed” and the patient response (CLL; at C3D1 (cycle 3, day 1)) was “partial response”. For the same compound, the IC50 [2] was 5420 ± 1080 nM.
`CC1(C)CCC(c2ccc(Cl)cc2)=C(CN2CCN(c3ccc(C(=O)NS(=O)(=O)c4ccc(N[C@H](CCN5CCOCC5)CSc5ccccc5)c(S(=O)(=O)C(F)(F)F)c4)cc3)CC2)C1` [ABT-263, (R)-4-(4-((4′-chloro-4,4-dimethyl-3,4,5,6-tetrahydro-[1,1′-biphenyl]-2-yl)methyl)piperazin-1-yl)-N-((4-((4-morpholino-1-(phenylthio)butan-2-yl)amino)-3((trifluoromethyl)sulfonyl)phenyl)sulfonyl)benzamide] was tested, and the CI50 growth inhibition (GRANTA-519) was “S (S=0.1 to <0.5)”, the CI50 inhibition (GRANTA-519) was “W (W=≥1)” and the “Synergy score growth inhibition” value (GRANTA-519) was “A3 (A3=3 to <10)”. For the same compound, the Synergy score inhibition (GRANTA-519) was “A1 (A1=0.0001 to <1)”, the CI50 growth inhibition (Jeko-1) was “S (S=0.1 to <0.5)” and the CI50 inhibition (Jeko-1) was “S (S=0.1 to <0.5)”. The “Synergy score growth inhibition” value (Jeko-1) was “A3 (A3=3 to <10)”, the Synergy score inhibition (Jeko-1) was “A3 (A3=3 to <10)” and the CI50 growth inhibition (U-2932) was “T (T=0.5 to <0.7)”. For the same compound, the CI50 inhibition (U-2932) was “T (T=0.5 to <0.7)”, the “Synergy score growth inhibition” value (U-2932) was “A3 (A3=3 to <10)” and the Synergy score inhibition (U-2932) was “A2 (A2=1 to <3)”. For the same compound, the CI50 growth inhibition (OCI-Ly3) was “U (U=0.7 to <1)”, the CI50 inhibition (OCI-Ly3) was “W (W=≥1)” and the “Synergy score growth inhibition” value (OCI-Ly3) was “A3 (A3=3 to <10)”. The Synergy score inhibition (OCI-Ly3) was “A1 (A1=0.0001 to <1)”, the CI50 growth inhibition (TMD8) was “S (S=0.1 to <0.5)” and the CI50 inhibition (TMD8) was “T (T=0.5 to <0.7)”. For the same compound, the “Synergy score growth inhibition” value (TMD8) was “A3 (A3=3 to <10)”, the Synergy score inhibition (TMD8) was “A2 (A2=1 to <3)” and the CI50 growth inhibition (HBL-1) was “S (S=0.1 to <0.5)”. For the same compound, the CI50 inhibition (HBL-1) was “U (U=0.7 to <1)”, the “Synergy score growth inhibition” value (HBL-1) was “A3 (A3=3 to <10)” and the Synergy score inhibition (HBL-1) was “A2 (A2=1 to <3)”. For the same compound, the CI50 growth inhibition (KARPAS-422) was “S (S=0.1 to <0.5)”, the CI50 inhibition (KARPAS-422) was “T (T=0.5 to <0.7)” and the “Synergy score growth inhibition” value (KARPAS-422) was “A4 (A4=≥10)”. The Synergy score inhibition (KARPAS-422) was “A3 (A3=3 to <10)”, the CI50 growth inhibition (RL) was “U (U=0.7 to <1)” and the CI50 inhibition (RL) was “U (U=0.7 to <1)”. The “Synergy score growth inhibition” value (RL) was “A3 (A3=3 to <10)”, the Synergy score inhibition (RL) was “A1 (A1=0.0001 to <1)” and the CI50 growth inhibition (DOHH-2) was “S (S=0.1 to <0.5)”. For the same compound, the CI50 inhibition (DOHH-2) was “S (S=0.1 to <0.5)”, the “Synergy score growth inhibition” value (DOHH-2) was “A4 (A4=≥10)” and the Synergy score inhibition (DOHH-2) was “A3 (A3=3 to <10)”. The CI50 growth inhibition (SU-DHL-4-epst) was “T (T=0.5 to <0.7)”, the CI50 inhibition (SU-DHL-4-epst) was “S (S=0.1 to <0.5)” and the “Synergy score growth inhibition” value (SU-DHL-4-epst) was “A4 (A4=≥10)”. For the same compound, the Synergy score inhibition (SU-DHL-4-epst) was “A3 (A3=3 to <10)”, the CI50 growth inhibition (OPM-2) was “T (T=0.5 to <0.7)” and the CI50 inhibition (OPM-2) was “U (U=0.7 to <1)”. The “Synergy score growth inhibition” value (OPM-2) was “A3 (A3=3 to <10)”, the Synergy score inhibition (OPM-2) was “A2 (A2=1 to <3)” and the CI50 growth inhibition (RPMI-8226) was “T (T=0.5 to <0.7)”. The CI50 inhibition (RPMI-8226) was “U (U=0.7 to <1)”, the “Synergy score growth inhibition” value (RPMI-8226) was “A3 (A3=3 to <10)” and the Synergy score inhibition (RPMI-8226) was “A2 (A2=1 to <3)”. The CI50 growth inhibition (NCI-H929) was “U (U=0.7 to <1)”, the CI50 inhibition (NCI-H929) was “T (T=0.5 to <0.7)” and the “Synergy score growth inhibition” value (NCI-H929) was “A2 (A2=1 to <3)”. The Synergy score inhibition (NCI-H929) was “A2 (A2=1 to <3)”, the CI50 growth inhibition (Mino) was “S (S=0.1 to <0.5)” and the CI50 inhibition (Mino) was “T (T=0.5 to <0.7)”. For the same compound, the “Synergy score growth inhibition” value (Mino) was “A3 (A3=3 to <10)”, the Synergy score inhibition (Mino) was “A2 (A2=1 to <3)” and the CI50 growth inhibition (WSU-NHL) was “T (T=0.5 to <0.7)”. For the same compound, the CI50 inhibition (WSU-NHL) was “S (S=0.1 to <0.5)”, the “Synergy score growth inhibition” value (WSU-NHL) was “A4 (A4=≥10)” and the Synergy score inhibition (WSU-NHL) was “A3 (A3=3 to <10)”. For the same compound, the “Synergy score growth inhibition” value (KARPAS-299) was “A1 (A1=0.0001 to <1)”, the Synergy score inhibition (KARPAS-299) was “A1 (A1=0.0001 to <1)” and the CI50 growth inhibition (HH) was “U (U=0.7 to <1)”. For the same compound, the CI50 inhibition (HH) was “S (S=0.1 to <0.5)”, the “Synergy score growth inhibition” value (HH) was “A3 (A3=3 to <10)” and the Synergy score inhibition (HH) was “A2 (A2=1 to <3)”. For the same compound, the CI50 growth inhibition (SU-DHL-10-epst) was “U (U=0.7 to <1)”, the CI50 inhibition (SU-DHL-10-epst) was “U (U=0.7 to <1)” and the “Synergy score growth inhibition” value (SU-DHL-10-epst) was “A3 (A3=3 to <10)”. The Synergy score inhibition (SU-DHL-10-epst) was “A2 (A2=1 to <3)”, the CI50 growth inhibition (Farage) was “T (T=0.5 to <0.7)” and the CI50 inhibition (Farage) was “T (T=0.5 to <0.7)”. The “Synergy score growth inhibition” value (Farage) was “A3 (A3=3 to <10)”, the Synergy score inhibition (Farage) was “A2 (A2=1 to <3)” and the CI50 growth inhibition (OCI-Ly7) was “W (W=≥1)”. For the same compound, the “Synergy score growth inhibition” value (OCI-Ly7) was “A1 (A1=0.0001 to <1)” and the Synergy score inhibition (OCI-Ly7) was “A1 (A1=0.0001 to <1)”.
